Reference: patent US6653340B1, “Compounds useful in the complement, coagulat and kallikrein pathways and method for their preparation” (BioCryst Pharmaceuticals, Inc., priority 1997, dated 2003)

How the values were obtained:
Assay type in all cases: biochemical
factor XIIa = target: T1, factor XIIa (Homo sapiens, UniProt P00748); test: Factor XIIa inhibition assay (thioester substrate); settings: read-out: XIIa (Serine Protease Inhibitory Data, IC50)
T1 sequence (P00748 373-615 limits assumed): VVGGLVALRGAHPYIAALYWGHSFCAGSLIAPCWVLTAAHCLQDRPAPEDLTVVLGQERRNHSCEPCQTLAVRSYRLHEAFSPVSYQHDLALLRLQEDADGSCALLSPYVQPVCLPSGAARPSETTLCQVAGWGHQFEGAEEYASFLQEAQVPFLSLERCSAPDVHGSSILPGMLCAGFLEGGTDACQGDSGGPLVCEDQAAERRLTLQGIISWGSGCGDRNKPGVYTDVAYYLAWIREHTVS
Protocol: (§1) The compounds to be tested were dissolved in a stock solution of DMSO at 10.0 or 100 mM. A portion of this stock solution was added to assay buffer in a final volume of 100 μL containing the enzyme of interest. Controls included buffer alone and enzyme solutions to which DMSO was added. Substrate was added to the reaction wells immediately or after incubation at room temperature. The reaction rates were measured spectrophotometrically by the generation of product at 405 nm for 200 sec. Background absorbance at 690 nm was measured and subtracted from the absorbance at 405 nm for each well.
(§2) The reaction rate for enzyme alone was compared to the rate of enzyme in the presence of inhibitor and the percent inhibition was calculated as shown below:
(§3) Percent Inhibition=[Rate without inhibitor−Rate with inhibitor)/(Rate without inhibitor)]×100
(§4) Compounds in the examples were tested a minimum of three times.
(§5) Thrombin was assayed at 12.5 U/ml using 0.37 mM N-Benzoyl-Phe-Val-Arg-p-nitroanilide (Svendsen, L.; Blomback B.; Blomback, M.; Olsson, P. I. Substrate for determination of trypsin, thrombin and thrombin-like enzymes. Folia Haematol. 1972, 98, 446-454.) as the substrate in 100 mM HEPES, 10 mM CaCl2, 10% DMSO, pH 7.5. Factor Xa, 0.5 U/mL, was assayed in 50 mM HEPES, 150 mM NaCl, 10 mM CaCl2, pH 8.0 using Chromozyme X, 0.17 mM, as the substrate. Plasmin (0.004 units/mL), factor XIIa ([…]) and kallikrein (0.02 units/mL were assayed using modifications of the techniques originally described by McRae, et al. (Biochemistry. 1981, 20, 7196-7206). The assays were run in 200 mM triethanolamine, pH 7.8 and 100 mM Tris-HCl, 100 mM EDTA, […] using Z-Lys-SBzl, 0.13 mM and […], 0.16 mM, as substrates, respectively.

C1s = target: T2, C1s (Homo sapiens, UniProt P09871); test: C1s esterolytic inhibition assay (Z-Lys-SBzl substrate); settings: Z-Lys-SBzl 1.29 mM, C1s 3 to 13 nM; read-out: Cls (Serine Protease Inhibitory Data, IC50)
T2 sequence (P09871 16-688): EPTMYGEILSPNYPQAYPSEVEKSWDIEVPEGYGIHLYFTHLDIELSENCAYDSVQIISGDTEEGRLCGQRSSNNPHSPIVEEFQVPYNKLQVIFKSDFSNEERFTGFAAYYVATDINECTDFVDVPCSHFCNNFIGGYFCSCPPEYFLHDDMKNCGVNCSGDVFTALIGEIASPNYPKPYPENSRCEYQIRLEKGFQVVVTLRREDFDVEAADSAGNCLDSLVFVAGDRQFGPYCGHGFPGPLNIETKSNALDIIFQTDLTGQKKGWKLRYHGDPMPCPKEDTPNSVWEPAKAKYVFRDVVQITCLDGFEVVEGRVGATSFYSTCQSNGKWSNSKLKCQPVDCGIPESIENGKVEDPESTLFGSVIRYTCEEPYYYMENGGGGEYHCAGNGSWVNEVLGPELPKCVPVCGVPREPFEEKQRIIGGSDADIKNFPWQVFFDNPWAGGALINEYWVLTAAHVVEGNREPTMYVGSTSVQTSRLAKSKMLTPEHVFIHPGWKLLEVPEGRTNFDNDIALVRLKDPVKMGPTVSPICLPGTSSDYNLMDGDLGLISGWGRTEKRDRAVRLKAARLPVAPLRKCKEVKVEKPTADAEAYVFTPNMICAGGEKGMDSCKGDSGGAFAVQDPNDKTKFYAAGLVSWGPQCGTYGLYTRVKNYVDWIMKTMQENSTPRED
Protocol: as §1, §2, §3, §4
C1s esterolytic activity was assayed using a modification of the technique originally described by Kam using Z-Lys-SBzl, 1.29 mM as substrate and C1s at 3 to 13 nM.

Thrombin = Thrombin (Homo sapiens, UniProt P00734); test: Thrombin inhibition assay (N-Benzoyl-Phe-Val-Arg-p-nitroanilide substrate); settings: thrombin 12.5 U/ml, pH 7.5; read-out: Thrombin (Serine Protease Inhibitory Data, IC50)
Protocol: as §1, §2, §3, §4, §5

Factor Xa = Factor Xa (Homo sapiens, UniProt P00742); test: Factor Xa inhibition assay (Chromozyme X substrate); settings: Factor Xa 0.5 U/mL, pH 8.0; read-out: Xa (Serine Protease Inhibitory Data, IC50)
Protocol: as §1, §2, §3, §4, §5

Factor D = Factor D (Homo sapiens, UniProt P00746); test: Factor D esterolytic inhibition assay (Z-Lys-SBzl substrate); set-up: Factor D was purified from the urine of a patient with Fanconi syndrome by ion exchange chromatography; from tissue; host or cells: urine of a patient with Fanconi syndrome; settings: Z-Lys-SBzl 1.29 mM, pH 7.5, 10% DMSO; read-out: Factor D (Serine Protease Inhibitory Data, IC50)
Text: A modification of the procedure of Volanakis (Volankis, J. E.; Barnum, S. R.; Kilpatrick, J. M. Purification and properties of human factor D. Methods in Enzymol. 1993, 223, 82-97) for purification of Factor D was utilized as described by Yamauchi (Yamauchi, Y.; Stevens, J. W.; Macon, K. J.; Volanakis, J. E. Recombinant and native zymogen forms of human complement factor D. J. Immunol. 1994, 152, 3645-3653. Briefly, Factor D was purified from the urine of a patient with Fanconi syndrome by ion exchange chromatography using BioRex 70 and two rounds of ion-exchange chromatography in a Pharmacia FPLC system using a HR5/5 Mono S column.
as §1, §2, §3, §4
An established esterolytic assay for the measurement of Factor D activity and inhibition of Factor D activity was used (Kam, C. M.; McRae, B. J.; Harper, J. W.; Niemann, M. A.; Volanakis, J. E.; Powers, J. C. Human complement proteins D, C2, and B Active site mapping with peptide thioester substrates. J Biol. Chem. 1987, 262, 3444-3451). […] Hydrolysis of this compound by Factor D liberated a free sulfhydryl group which is then reacted with 5,5′-dithiobis(2nitrobenzoic acid) producing an intense yellow color (Habeeb, A. F. S. A. Reaction of protein sulfhydryl groups with Ellman's Reagent. Methods in Enzymol. 1976, 25, 457-464.). The assays were performed in 96 well microtiter plates and rates of hydrolysis were monitored at 405 nm in a Anthos Labtec HT2 plate reader. Hydrolysis rates were reported as change in mOD/min. The assay was conducted in 100 mM HEPES, 500 mM NaCl, pH 7.5 containing 10% DMSO in a final volume of 200 μL per well.

Plasmin = Plasmin (Homo sapiens, UniProt P00747); test: Plasmin inhibition assay (thioester substrate); settings: plasmin 0.004 units/mL; read-out: Plasmin (Serine Protease Inhibitory Data, IC50)
Protocol: as §1, §2, §3, §4, §5

kallikrein = kallikrein (Homo sapiens, UniProt P03952); test: Kallikrein inhibition assay (thioester substrate); settings: kallikrein 0.02 units/mL; read-out: Kallikrein (Serine Protease Inhibitory Data, IC50)
Protocol: as §1, §2, §3, §4, §5

Sequence of Factor Xa (P00742 235-488 limits assumed): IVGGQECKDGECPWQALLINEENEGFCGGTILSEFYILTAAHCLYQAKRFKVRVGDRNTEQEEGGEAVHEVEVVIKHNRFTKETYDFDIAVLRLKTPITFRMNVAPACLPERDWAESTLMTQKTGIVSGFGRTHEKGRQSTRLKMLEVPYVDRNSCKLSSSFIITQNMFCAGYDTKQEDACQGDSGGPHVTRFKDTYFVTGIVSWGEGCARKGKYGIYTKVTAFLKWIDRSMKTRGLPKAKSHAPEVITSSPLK
Sequence of Factor Xa (P00742 41-179 partner limits assumed): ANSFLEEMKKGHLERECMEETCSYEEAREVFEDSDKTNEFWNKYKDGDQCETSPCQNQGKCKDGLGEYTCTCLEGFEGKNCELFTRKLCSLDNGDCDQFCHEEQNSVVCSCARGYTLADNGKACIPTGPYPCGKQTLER
Sequence of kallikrein (P03952 whole entry): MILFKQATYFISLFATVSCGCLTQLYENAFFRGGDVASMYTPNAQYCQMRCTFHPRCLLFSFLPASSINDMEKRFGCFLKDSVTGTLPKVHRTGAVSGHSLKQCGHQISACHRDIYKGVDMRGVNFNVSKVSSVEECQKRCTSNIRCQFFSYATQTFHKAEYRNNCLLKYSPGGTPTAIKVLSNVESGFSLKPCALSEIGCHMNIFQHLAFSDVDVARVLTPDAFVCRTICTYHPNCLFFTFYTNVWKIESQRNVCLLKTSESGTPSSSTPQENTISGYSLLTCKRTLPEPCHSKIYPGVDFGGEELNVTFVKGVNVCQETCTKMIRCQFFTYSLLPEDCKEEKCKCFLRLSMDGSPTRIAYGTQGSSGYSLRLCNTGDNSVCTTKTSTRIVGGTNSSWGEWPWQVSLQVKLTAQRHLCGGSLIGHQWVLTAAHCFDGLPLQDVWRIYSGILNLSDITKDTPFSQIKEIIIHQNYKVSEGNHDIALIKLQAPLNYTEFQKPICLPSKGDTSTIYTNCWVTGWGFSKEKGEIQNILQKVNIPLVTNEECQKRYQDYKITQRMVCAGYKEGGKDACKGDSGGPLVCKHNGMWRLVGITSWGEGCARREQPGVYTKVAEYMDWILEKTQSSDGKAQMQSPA
Sequence of Plasmin (P00747 581-810 limits assumed, species assumed): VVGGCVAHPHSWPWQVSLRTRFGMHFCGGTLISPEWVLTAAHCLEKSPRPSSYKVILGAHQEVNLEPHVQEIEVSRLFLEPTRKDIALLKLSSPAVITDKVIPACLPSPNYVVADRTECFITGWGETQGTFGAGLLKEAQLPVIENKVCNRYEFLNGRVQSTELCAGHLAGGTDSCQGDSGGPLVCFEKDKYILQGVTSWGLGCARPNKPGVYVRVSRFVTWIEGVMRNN
Sequence of Plasmin (P00747 97-580 partner limits assumed, species assumed): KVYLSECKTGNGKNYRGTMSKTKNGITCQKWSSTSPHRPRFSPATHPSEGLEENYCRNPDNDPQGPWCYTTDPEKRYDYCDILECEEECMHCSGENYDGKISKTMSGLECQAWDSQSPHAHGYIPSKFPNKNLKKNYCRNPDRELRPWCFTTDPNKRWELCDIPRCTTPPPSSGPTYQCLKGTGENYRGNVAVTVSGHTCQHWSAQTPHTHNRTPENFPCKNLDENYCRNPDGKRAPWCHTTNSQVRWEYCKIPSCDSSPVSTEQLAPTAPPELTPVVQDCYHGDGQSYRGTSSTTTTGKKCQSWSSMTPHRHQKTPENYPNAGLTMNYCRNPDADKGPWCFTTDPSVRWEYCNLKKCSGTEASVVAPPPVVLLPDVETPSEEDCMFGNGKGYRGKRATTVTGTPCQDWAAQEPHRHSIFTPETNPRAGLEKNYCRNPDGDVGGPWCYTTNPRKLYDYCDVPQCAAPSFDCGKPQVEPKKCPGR
Sequence of Factor D (P00746 26-253): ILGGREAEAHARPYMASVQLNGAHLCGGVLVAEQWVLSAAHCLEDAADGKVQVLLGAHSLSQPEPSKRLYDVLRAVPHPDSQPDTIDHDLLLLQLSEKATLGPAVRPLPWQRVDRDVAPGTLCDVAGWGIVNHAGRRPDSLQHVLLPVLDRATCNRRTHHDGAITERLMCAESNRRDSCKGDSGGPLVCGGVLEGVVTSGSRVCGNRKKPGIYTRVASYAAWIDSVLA

Structure (SMILES)	IC50 (factor XIIa) [nM]	IC50 (C1s) [nM]	IC50 (Thrombin) [nM]	IC50 (Factor Xa) [nM]	IC50 (Factor D) [nM]	IC50 (Plasmin) [nM]	IC50 (kallikrein) [nM]
N=C(N)c1nc2ccc(OC(=O)c3ccccc3)cc2s1 [Example 12]	13	5.3	44	52	564	37	3.8
N=C(N)c1cc2ccc(OC(=O)c3ccco3)cc2o1 [Example 1, 2-Amidino-6-benzofuranyl 2-furanylcarboxylate]	20	37	57	60	3650	42	5.4
N=C(N)c1cc2cc(OC(=O)c3cccs3)ccc2o1 [Example 4]	–	50	124	880	5590	116	–
N=C(N)C1COc2cc(OC(=O)c3ccco3)ccc2C1 (stereo not shown) [Example 19]	–	750	–	–	50000	–	661
N=C(N)C1=Cc2ccc(OC(=O)c3ccco3)cc2OC1 [Example 18, 3-amidino-7-(2H-1-benzopyran) 2-furancarboxylate methanesulfonate]	6.1	2.9	51	3.9	347	1.5	3.6
N=C(N)c1cc2cc(OC(=O)c3ccco3)ccc2o1 [Example 3]	20.2	56	65	4	460	23	5.4
N=C(N)c1nc2ccc(OC(=O)c3ccco3)cc2s1 [Example 13]	9	3	25	1	421	2	4
N=C(N)c1nc2ccc(OC(=O)c3ccsc3)cc2s1 [Example 16]	10	2.5	42	31	205	21	2.6
N=C(N)c1cc2cc(OC(=O)c3ccsc3)ccc2o1 [Example 6]	–	122	361	500	10800	546	–
N=C(N)c1nc2ccc(OC(=O)c3ccc(Cl)s3)cc2s1 [Example 17]	–	2	48	2	260	3	–
N=C(N)c1nc2ccc(OC(=O)c3cccs3)cc2s1 [Example 14]	5	2	18	12	250	6	2
N=C(N)c1cc2ccc(OC(=O)c3cccs3)cc2o1 [Example 2]	–	519	520	996	9110	817	–
N=C(N)c1ccc2cc(OC(=O)c3ccccc3)ccc2c1 [reference, reference compound]	–	40	3110	7170	4000	–	–

The remaining lines, values ahead:

IC50 (factor XIIa) [nM]	IC50 (C1s) [nM]	IC50 (Thrombin) [nM]	IC50 (Factor Xa) [nM]	IC50 (Factor D) [nM]	IC50 (Plasmin) [nM]	IC50 (kallikrein) [nM]	Structure (SMILES)
12.7	4.3	39	6	175	9	1.6	N=C(N)c1cc2ccc(OC(=O)c3ccsc3)cc2s1 [Example 11]
–	76	104	1580	2850	325	–	N=C(N)c1cc2cc(OC(=O)c3ccoc3)ccc2o1 [Example 5]
6	1.6	42	3.2	96	4.1	1.4	N=C(N)c1cc2ccc(OC(=O)c3cccs3)cc2s1 [Example 9]
901	11	39	23	500	11	1.3	N=C(N)c1cc2ccc(OC(=O)c3ccccc3)cc2s1 [Example 7]
17.4	4.1	47	1	177	1	1.6	N=C(N)c1cc2ccc(OC(=O)c3ccoc3)cc2s1 [Example 10]
6	2	15	22	286	15	5	N=C(N)c1nc2ccc(OC(=O)c3ccoc3)cc2s1 [Example 15]
27	6	47	5	190	6	12	CC/C=C/C(=O)Oc1ccc2cc(C(=N)N)sc2c1 [Example 20]
5.4	1.7	44	1	147	1	1.4	N=C(N)c1cc2ccc(OC(=O)c3ccco3)cc2s1 [Example 8]
